For assay [1], the system named is U2OS cells. The assay is described as follows: PI flow cytometry, sub-G1 cells, U2OS. It counts as cell-based. The protocol:
Cell cycle distribution analysis was performed on a Becton Dickinson FACScan flow cytometer or FACSCalibur (BD Biosciences) following staining with propidium iodide (PI) or dual labeling with BrdU and PI[36]. These assays were analyzed using CellQuest Pro (BD Biosciences).

Assay [2] relates to p53 levels in S-phase U2OS cells. Nature of the assay: p53-FITC/DNA content flow cytometry. Format: cell-based. The settings on record: HZ05 1 μM, 72 h. The protocol:
The upper left panel is a representative dot plot showing the gating strategy for cells expressing high p53 levels (blue: […] DMSO treated). […] A representative histogram of the fluorescence intensity of FITC-p53 in S-phase cells is shown in the lower right panel. Bar graphs show the average of three independent experiments. […] After an additional 48 h, Annexin V and PI staining was analyzed by flow cytometry. […] Inhibition of p53 degradation in the form of an mdm2 antagonist leads to death of cells in S-phase For the detection of p53, cells were treated as indicated and fixed using Fix/Perm buffer solution (eBiosciences). […] Cells were resuspended in FACS buffer (2 mM EDTA, 0.5% BSA) containing 2 μg mL^−1 FxCycle Violet (Thermo Scientific). Stained cells were acquired on LSRII (BD Biosciences) and analyzed using FlowJo software V10.2.

Assay [3] has as its system p53-induced mRNAs in ARN8 cells. Nature of the assay: q-RT-PCR of p53-induced mRNAs and p53 mRNA. Format: cell-based, human. The protocol: Supplementary Figure 1. HZ compounds increase the levels of p53-induced mRNAs. a) p53-null H1299 cells were transfected with the RGCΔ FosLacZ reporter construct and levels of p53-dependent transcription were determined by CPRG assay following a 16 h exposure to HZ00. A vector expressing wild-type p53 was used as a positive control. The average of three […]
for 1 hour prior to treatment with 2 µM nutlin-3 for an additional 18 hours. Levels of p53-induced mRNAs and p53 mRNA were determined by q-RT-PCR. tbp was used as a control.
Values correspond to the average of three technical repeats with standard deviation used for error. RNA extraction and q-RT-PCR were performed as previously described - see supplementary information7. c) HCT116 p53 wild-type or p53 deficient cells were treated […]
supplementary information for cell line description8. d) ARN8 cells treated for 6 hours with HZ00 at indicated doses. Levels of p53 mRNA were determined by q-RT-PCR. […]

Assay [4] concerns the target CDK1/CycA2 (Homo sapiens, UniProt P06493). Nature of the assay: biochemical. More on the design: radiometric 33PanQinase protein kinase activity assay, CDK/cyclin panel, per cent remaining activity. The following applies: read-out: HZ00 10 µM Average (% remaining activity). An excerpt: (§1) Supplementary Table 1. In vitro inhibition (% remaining activity) of cyclin-dependent
(§2) ProQinase GmbH (Freiburg, Germany) using a radiometric protein kinase assay
(§3) (33PanQinase® Activity Assay).
(§4) (1 picture or pasted object on this page, not shown here) 32 Supplementary Table 1. In vitro inhibition (% remaining activity) of cyclin-dependent kinases (CDKs).

In assay [5] the target is CDK1/CycB1 (Homo sapiens, UniProt P06493). Nature of the assay: biochemical. Also on record: radiometric 33PanQinase protein kinase activity assay, CDK/cyclin panel, per cent remaining activity. The settings on record: read-out: HZ00 10 µM Average (% remaining activity).
From the text: as §1, §2, §3, §4

The target of assay [6] is CDK1/CycE1 (Homo sapiens, UniProt P06493). The assay is described as follows: biochemical. The settings on record: read-out: HZ00 10 µM Average (% remaining activity). More on the design: radiometric 33PanQinase protein kinase activity assay, CDK/cyclin panel, per cent remaining activity.
From the text: as §1, §2, §3, §4

Assay [7] has as its target CDK2/CycA2 (Homo sapiens, UniProt P24941). Nature of the assay: biochemical. Also on record: radiometric 33PanQinase protein kinase activity assay, CDK/cyclin panel, per cent remaining activity. The settings on record: read-out: HZ00 10 µM Average (% remaining activity).
From the text: as §1, §2, §3, §4

In assay [8] the target is CDK2/CycE1 (Homo sapiens, UniProt P24941). Nature of the assay: biochemical. The following applies: read-out: HZ00 10 µM Average (% remaining activity). More on the design: radiometric 33PanQinase protein kinase activity assay, CDK/cyclin panel, per cent remaining activity.
From the text: as §1, §2, §3, §4

Assay [9] deals with CDK3/CycE1 (Homo sapiens, UniProt Q00526). The assay is described as follows: biochemical. More on the design: radiometric 33PanQinase protein kinase activity assay, CDK/cyclin panel, per cent remaining activity. The settings on record: read-out: HZ00 10 µM Average (% remaining activity).
From the text: as §1, §2, §3, §4

For assay [10], the target named is CDK4/CycD1 (Homo sapiens, UniProt P11802). Nature of the assay: biochemical. Also on record: radiometric 33PanQinase protein kinase activity assay, CDK/cyclin panel, per cent remaining activity. The settings on record: read-out: HZ00 10 µM Average (% remaining activity).
From the text: as §1, §2, §3, §4

The target of assay [11] is CDK4/CycD3 (Homo sapiens, UniProt P11802). Nature of the assay: biochemical. More on the design: radiometric 33PanQinase protein kinase activity assay, CDK/cyclin panel, per cent remaining activity. The following applies: read-out: HZ00 10 µM Average (% remaining activity).
From the text: as §1, §2, §3, §4

The target of assay [12] is T1, CDK5/p25NCK (Homo sapiens, UniProt Q00535).
T1 construct: p25
The assay is described as follows: biochemical. The settings on record: read-out: HZ00 10 µM Average (% remaining activity). More on the design: radiometric 33PanQinase protein kinase activity assay, CDK/cyclin panel, per cent remaining activity.
From the text: as §1, §2, §3, §4

Assay [13] deals with T2, CDK5/p35NCK (Homo sapiens, UniProt Q00535).
T2 construct: p35
The assay is described as follows: biochemical. Also on record: radiometric 33PanQinase protein kinase activity assay, CDK/cyclin panel, per cent remaining activity. The following applies: read-out: HZ00 10 µM Average (% remaining activity).
From the text: as §1, §2, §3, §4

Assay [14] deals with CDK6/CycD1 (Homo sapiens, UniProt Q00534). The assay is described as follows: biochemical. Also on record: radiometric 33PanQinase protein kinase activity assay, CDK/cyclin panel, per cent remaining activity. The settings on record: read-out: HZ00 10 µM Average (% remaining activity).
From the text: as §1, §2, §3, §4

Assay [15] concerns the target CDK7/CycH/MAT1 (Homo sapiens, UniProt P50613). The assay is described as follows: biochemical. Also on record: radiometric 33PanQinase protein kinase activity assay, CDK/cyclin panel, per cent remaining activity. The settings on record: read-out: HZ00 10 µM Average (% remaining activity).
From the text: as §1, §2, §3, §4

Assay [16] addresses CDK8/CycC (Homo sapiens, UniProt P49336). Nature of the assay: biochemical. The settings on record: read-out: HZ00 10 µM Average (% remaining activity). More on the design: radiometric 33PanQinase protein kinase activity assay, CDK/cyclin panel, per cent remaining activity.
From the text: as §1, §2, §3, §4

For assay [17], the target named is CDK9/CycK (Homo sapiens, UniProt P50750). Nature of the assay: biochemical. Also on record: radiometric 33PanQinase protein kinase activity assay, CDK/cyclin panel, per cent remaining activity. The following applies: read-out: HZ00 10 µM Average (% remaining activity).
From the text: as §1, §2, §3, §4

The target of assay [18] is T3, PCTAIRE1/CycY (Homo sapiens, UniProt Q00536).
T3 construct: gene CDK16
The assay is described as follows: biochemical. Also on record: radiometric 33PanQinase protein kinase activity assay, CDK/cyclin panel, per cent remaining activity. The following applies: read-out: HZ00 10 µM Average (% remaining activity).
From the text: as §1, §2, §3, §4

The record followed here is PMC5856786, “A DHODH inhibitor increases p53 synthesis and enhances tumor cell killing by p53 degradation blockage” (Nature Communications, 2018).

Structures are written as SMILES.

Sequence of CDK7/CycH/MAT1 (P50613 whole entry): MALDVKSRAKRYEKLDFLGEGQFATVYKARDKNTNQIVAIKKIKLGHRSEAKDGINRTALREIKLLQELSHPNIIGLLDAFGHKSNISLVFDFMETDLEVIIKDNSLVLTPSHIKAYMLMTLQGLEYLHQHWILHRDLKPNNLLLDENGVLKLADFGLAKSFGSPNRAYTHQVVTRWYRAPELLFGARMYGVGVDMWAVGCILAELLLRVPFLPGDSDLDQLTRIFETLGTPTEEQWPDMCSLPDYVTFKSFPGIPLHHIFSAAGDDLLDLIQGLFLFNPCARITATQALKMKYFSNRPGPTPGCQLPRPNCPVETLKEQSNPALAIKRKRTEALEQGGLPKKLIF
Sequence of CDK7/CycH/MAT1 (P51946 whole entry partner): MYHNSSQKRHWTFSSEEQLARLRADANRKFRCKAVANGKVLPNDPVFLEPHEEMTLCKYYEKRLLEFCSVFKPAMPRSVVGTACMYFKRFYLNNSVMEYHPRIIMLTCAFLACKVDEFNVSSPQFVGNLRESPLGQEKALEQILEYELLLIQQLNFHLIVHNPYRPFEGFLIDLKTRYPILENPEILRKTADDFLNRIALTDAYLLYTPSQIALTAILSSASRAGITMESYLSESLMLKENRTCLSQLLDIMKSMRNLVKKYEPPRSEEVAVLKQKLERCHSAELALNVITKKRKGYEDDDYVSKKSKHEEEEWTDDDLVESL
Sequence of CDK7/CycH/MAT1 (P51948 whole entry partner): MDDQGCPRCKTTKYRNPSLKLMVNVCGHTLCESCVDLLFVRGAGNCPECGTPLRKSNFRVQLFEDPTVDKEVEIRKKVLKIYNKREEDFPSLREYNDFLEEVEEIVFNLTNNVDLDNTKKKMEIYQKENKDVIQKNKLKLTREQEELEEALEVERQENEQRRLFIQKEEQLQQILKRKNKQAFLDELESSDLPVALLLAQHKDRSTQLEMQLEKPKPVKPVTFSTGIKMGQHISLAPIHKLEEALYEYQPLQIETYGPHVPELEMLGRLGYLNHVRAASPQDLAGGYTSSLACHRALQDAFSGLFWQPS
Sequence of CDK6/CycD1 (Q00534 whole entry): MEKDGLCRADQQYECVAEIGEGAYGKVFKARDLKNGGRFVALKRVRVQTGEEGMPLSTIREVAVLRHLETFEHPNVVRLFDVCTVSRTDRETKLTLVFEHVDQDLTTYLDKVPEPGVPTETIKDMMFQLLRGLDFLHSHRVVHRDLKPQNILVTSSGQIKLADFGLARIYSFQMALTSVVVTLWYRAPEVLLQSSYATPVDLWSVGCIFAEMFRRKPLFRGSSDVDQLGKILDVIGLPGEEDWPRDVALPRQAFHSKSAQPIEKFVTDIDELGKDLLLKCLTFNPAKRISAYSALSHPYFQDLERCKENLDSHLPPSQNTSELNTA
Sequence of CDK6/CycD1 (P24385 whole entry partner): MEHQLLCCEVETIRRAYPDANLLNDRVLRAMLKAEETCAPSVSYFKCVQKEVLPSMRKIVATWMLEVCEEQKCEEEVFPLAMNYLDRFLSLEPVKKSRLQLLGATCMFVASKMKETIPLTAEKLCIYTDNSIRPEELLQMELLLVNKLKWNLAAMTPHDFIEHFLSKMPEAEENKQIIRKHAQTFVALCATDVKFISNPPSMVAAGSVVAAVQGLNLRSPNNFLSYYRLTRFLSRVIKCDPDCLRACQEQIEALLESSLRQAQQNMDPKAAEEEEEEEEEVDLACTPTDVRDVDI
T3 sequence (Q00536 whole entry): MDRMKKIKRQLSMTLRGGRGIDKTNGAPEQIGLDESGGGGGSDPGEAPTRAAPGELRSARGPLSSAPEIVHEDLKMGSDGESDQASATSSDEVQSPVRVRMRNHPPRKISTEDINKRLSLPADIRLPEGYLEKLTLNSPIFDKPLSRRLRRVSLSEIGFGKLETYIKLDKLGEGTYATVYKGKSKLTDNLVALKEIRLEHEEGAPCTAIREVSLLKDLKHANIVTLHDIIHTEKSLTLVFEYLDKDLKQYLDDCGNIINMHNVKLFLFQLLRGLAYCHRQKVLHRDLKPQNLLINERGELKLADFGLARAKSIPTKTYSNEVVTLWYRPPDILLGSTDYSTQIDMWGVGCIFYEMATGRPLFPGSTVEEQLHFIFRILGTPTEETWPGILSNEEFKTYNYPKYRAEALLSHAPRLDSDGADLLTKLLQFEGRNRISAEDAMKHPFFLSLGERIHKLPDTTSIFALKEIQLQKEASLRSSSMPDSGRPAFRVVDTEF
T3 sequence (Q8ND76 whole entry partner): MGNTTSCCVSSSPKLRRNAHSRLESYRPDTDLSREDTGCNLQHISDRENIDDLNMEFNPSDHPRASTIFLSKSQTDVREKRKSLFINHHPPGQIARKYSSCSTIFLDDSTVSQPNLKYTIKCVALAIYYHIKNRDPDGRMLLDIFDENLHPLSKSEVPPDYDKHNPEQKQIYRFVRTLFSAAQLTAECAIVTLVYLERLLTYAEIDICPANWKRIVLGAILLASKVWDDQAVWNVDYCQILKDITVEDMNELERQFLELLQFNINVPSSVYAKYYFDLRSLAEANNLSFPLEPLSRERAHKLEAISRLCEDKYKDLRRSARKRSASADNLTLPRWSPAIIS
Sequence of CDK8/CycC (P49336 whole entry): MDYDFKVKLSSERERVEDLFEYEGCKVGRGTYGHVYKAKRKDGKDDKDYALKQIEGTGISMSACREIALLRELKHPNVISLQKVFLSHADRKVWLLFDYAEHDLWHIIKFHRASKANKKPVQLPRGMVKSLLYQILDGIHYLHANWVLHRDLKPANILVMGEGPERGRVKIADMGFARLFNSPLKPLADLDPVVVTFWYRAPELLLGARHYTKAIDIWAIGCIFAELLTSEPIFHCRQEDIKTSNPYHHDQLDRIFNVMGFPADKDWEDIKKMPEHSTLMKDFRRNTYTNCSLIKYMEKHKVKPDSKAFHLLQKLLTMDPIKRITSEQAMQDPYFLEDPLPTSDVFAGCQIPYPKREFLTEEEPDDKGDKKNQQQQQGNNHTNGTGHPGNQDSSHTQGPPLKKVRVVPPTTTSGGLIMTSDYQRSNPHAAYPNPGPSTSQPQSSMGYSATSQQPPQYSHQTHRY
Sequence of CDK8/CycC (P24863 whole entry partner): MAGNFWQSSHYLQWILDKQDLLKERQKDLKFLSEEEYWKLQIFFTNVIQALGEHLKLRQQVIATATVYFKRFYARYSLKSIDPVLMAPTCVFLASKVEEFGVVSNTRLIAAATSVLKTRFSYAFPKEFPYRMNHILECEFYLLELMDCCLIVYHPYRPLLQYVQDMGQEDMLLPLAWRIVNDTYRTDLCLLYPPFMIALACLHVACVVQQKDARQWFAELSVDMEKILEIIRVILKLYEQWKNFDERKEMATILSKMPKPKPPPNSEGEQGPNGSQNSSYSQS
Sequence of CDK4/CycD1 (P11802 whole entry): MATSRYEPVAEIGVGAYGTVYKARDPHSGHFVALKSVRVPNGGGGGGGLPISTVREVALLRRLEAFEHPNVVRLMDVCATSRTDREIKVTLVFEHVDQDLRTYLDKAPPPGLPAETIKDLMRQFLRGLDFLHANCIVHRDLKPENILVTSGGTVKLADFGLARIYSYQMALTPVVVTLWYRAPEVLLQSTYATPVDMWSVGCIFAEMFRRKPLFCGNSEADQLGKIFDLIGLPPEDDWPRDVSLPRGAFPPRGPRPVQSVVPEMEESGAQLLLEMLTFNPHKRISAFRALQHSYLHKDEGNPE
Sequence of CDK4/CycD1 (P24385 whole entry partner): as the sequence (P24385 whole entry partner) above
Sequence of CDK4/CycD3 (P11802 whole entry): as the sequence (P11802 whole entry) above
Sequence of CDK4/CycD3 (P30281 whole entry partner): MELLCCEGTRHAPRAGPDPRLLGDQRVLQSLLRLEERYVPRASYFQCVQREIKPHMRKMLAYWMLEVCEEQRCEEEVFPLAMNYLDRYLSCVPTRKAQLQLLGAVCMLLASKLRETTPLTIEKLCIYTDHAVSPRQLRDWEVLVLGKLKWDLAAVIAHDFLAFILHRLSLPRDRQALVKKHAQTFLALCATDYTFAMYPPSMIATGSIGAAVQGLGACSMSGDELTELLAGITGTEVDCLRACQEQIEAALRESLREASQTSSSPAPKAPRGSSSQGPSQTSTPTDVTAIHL
Sequence of CDK3/CycE1 (Q00526 whole entry): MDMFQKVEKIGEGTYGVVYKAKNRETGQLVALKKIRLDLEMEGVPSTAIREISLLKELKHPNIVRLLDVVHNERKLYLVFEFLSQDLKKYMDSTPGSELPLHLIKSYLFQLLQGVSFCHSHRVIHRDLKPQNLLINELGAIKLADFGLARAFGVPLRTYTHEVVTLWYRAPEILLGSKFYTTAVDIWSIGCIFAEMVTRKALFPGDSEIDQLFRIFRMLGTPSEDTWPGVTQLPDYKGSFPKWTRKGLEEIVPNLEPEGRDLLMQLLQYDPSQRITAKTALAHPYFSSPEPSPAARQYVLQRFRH
Sequence of CDK3/CycE1 (P24864 whole entry partner): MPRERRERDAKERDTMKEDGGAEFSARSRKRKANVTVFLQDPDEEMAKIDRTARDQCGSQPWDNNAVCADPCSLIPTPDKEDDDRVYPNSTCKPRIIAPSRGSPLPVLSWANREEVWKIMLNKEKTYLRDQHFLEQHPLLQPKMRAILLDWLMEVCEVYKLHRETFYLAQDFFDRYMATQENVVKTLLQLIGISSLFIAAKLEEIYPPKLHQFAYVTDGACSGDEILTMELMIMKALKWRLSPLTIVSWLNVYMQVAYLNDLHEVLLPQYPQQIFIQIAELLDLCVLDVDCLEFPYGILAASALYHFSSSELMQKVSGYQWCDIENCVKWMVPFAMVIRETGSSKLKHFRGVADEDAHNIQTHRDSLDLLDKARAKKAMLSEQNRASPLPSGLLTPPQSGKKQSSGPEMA

As for `O=C(NC1CCCc2c1cnn2-c1ccccc1F)c1onc2c1CCCC2` (stereo not drawn) [HZ05], the sub-G1 cells in assay [1] (HZ05 1 μM 72 h + 48 h, 2 μM nutlin-3a last 48 h) is 38.2%; in assay [1] (HZ05 1 μM 72 h + 48 h, DMSO last 48 h), 25.7%; in [1] (HZ05 1 μM, 72 h treatment), 3.7%; in [1] (HZ05 2.5 μM, 72 h treatment), 4.8%. The “p53 levels in S-phase cells” value in [2] was “higher levels of p53 than vehicle treated controls”.
As for `O=C(NC1CCCc2c1cnn2-c1ccccc1F)c1ccccn1` (stereo not drawn) [HZ00], in assay [3], the “mRNA of p53 target genes” value was “raised the mRNA of p53 target genes”. The remaining activity at 10 µM was found to be 89.1% in assay [4]; 104% in [5]; 101% in assay [6]; 96% in [7]; 102% in assay [8]; 96.6% in assay [9]. The remaining activity at 10 µM was determined as 104% in assay [10]; 89.2% in [11]; 104% in [12]; 105% in assay [13]; 103% in assay [14]; 96.2% in assay [15]. Also, the remaining activity at 10 µM in [16] was 95.2%; in assay [17], 100%; in assay [18], 103%.
